Eleven compounds from US20240116988A1, “ANTI-ROR1 MACROCYCLIC PEPTIDES AND COMPOSITIONS” (BRISTOL-MYERS SQUIBB COMPANY, priority 2022, published 2024) can be followed below.

Molecules are shown by their SMILES. Positions of bridges follow the written chain, without caps; N, C: chain ends. Non-standard residues stand in square brackets, D forms with d. Residues, ends and D or L forms follow the SMILES beside them. Bip = N[C@@H](Cc1ccc(-c2ccccc2)cc1)C(=O)O; NMeY = CN[C@@H](Cc1ccc(O)cc1)C(=O)O; NMeF = CN[C@@H](Cc1ccccc1)C(=O)O; Sar = CNCC(=O)O

The target in the test is T1, human ROR1 (Homo sapiens, UniProt Q01973).
T1 construct: host or cells: HEK 293T cells, Tet-on system induced with doxycycline
T1 sequence (Q01973 30-937): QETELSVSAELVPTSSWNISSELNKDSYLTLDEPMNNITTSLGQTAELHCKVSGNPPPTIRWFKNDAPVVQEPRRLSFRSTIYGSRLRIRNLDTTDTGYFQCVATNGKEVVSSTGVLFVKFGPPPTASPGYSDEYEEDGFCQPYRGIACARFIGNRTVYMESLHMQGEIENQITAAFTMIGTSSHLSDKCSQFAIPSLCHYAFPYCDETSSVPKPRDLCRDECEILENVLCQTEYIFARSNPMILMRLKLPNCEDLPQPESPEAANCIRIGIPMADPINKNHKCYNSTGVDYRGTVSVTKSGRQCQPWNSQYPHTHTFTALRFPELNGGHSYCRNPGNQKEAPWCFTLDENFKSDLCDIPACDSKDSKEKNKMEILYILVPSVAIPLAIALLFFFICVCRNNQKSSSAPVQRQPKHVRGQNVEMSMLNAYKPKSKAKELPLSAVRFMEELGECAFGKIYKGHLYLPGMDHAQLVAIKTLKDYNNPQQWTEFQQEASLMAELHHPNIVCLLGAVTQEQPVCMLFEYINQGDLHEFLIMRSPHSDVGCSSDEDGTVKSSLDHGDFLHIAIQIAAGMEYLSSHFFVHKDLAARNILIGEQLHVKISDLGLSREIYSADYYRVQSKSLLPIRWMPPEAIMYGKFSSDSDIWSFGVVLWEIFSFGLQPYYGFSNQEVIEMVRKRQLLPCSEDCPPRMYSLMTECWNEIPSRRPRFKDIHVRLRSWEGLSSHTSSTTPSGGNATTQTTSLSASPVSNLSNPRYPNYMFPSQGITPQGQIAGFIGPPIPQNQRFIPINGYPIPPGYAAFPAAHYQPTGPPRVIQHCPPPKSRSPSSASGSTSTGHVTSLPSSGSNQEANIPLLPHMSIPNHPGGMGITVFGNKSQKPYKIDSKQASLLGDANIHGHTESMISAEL
The test is described as follows: ROR1 high content cell-based binding assay. Particulars: read-out: ROR1 Binding 293T Human HC Cell Based Assay IC50. Put shortly:
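Doxycycline-induced 293T cells expressing human ROR1, seeded overnight, were treated with compound plus 5-FAM-labeled ROR1-binding probe peptide (30 nM final) for 1 h at 37 °C. After washing and formaldehyde/Hoechst fixation, cell-bound probe fluorescence was read by high-content imaging.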
A word on the IC50: it is the midpoint of a concentration-inhibition curve. With `CC(C)C[C@@H]1NC(=O)[C@H](Cc2c[nH]cn2)NC(=O)[C@H](Cc2ccccc2)N(C)C(=O)CNC(=O)[C@H](Cc2ccc(O)cc2)NC(=O)[C@@H](Cc2ccccc2)NC(=O)CSC[C@@H](C(N)=O)NC(=O)[C@H](Cc2c[nH]c3ccccc23)NC(=O)[C@H](Cc2ccc(O)cc2)NC1=O` [Example 1117] ({CH2CO}-[dF]YG[NMeF]HLYWC-NH2; thioether N-9), the IC50 worked out at 69 nM. The result for `CC(C)C[C@@H]1NC(=O)[C@H](CC(N)=O)NC(=O)[C@H](Cc2ccccc2)N(C)C(=O)CNC(=O)[C@H](Cc2ccc(O)cc2)NC(=O)[C@H](Cc2ccccc2)NC(=O)CSC[C@@H](C(=O)NCC(N)=O)NC(=O)[C@H](Cc2c[nH]c3ccccc23)NC(=O)[C@H](Cc2ccc(O)cc2)NC1=O` [Example 1118] ({CH2CO}-FYG[NMeF]NLYWCG-NH2; thioether N-9) reads 151 nM; that for `CC(C)C[C@@H]1NC(=O)[C@H](CC(N)=O)NC(=O)[C@H](Cc2ccccc2)N(C)C(=O)CNC(=O)[C@H](Cc2ccc(O)cc2)NC(=O)[C@H](Cc2ccc(O)cc2)NC(=O)CSC[C@@H](C(N)=O)NC(=O)[C@H](Cc2c[nH]c3ccccc23)NC(=O)[C@H](Cc2ccc(O)cc2)NC1=O` [Example 1120] ({CH2CO}-YYG[NMeF]NLYWC-NH2; thioether N-9), 790 nM; that for `CC(C)C[C@@H]1NC(=O)CNC(=O)[C@H](Cc2ccccc2)N(C)C(=O)CNC(=O)[C@H](Cc2ccc(O)cc2)NC(=O)[C@H](Cc2ccccc2)NC(=O)CSC[C@@H](C(N)=O)NC(=O)[C@H](Cc2c[nH]c3ccccc23)NC(=O)[C@H](Cc2ccc(O)cc2)NC1=O` [Example 1121] ({CH2CO}-FYG[NMeF]GLYWC-NH2; thioether N-9), 378 nM. Take `CC(C)C[C@@H]1NC(=O)[C@@H](CCC(N)=O)NC(=O)[C@H](Cc2ccccc2)N(C)C(=O)CNC(=O)[C@H](Cc2ccc(O)cc2)NC(=O)[C@H](Cc2ccccc2)NC(=O)CSC[C@@H](C(N)=O)NC(=O)[C@H](Cc2c[nH]c3ccccc23)NC(=O)[C@H](Cc2ccc(O)cc2)NC1=O` [Example 1122] ({CH2CO}-FYG[NMeF][dQ]LYWC-NH2; thioether N-9): the IC50 is 567 nM. The figure for `CC(C)C[C@@H]1NC(=O)[C@H](CC(N)=O)NC(=O)[C@H](Cc2ccc(O)cc2)N(C)C(=O)CNC(=O)[C@H](Cc2ccc(O)cc2)NC(=O)[C@H](Cc2ccccc2)NC(=O)CSC[C@@H](C(N)=O)NC(=O)[C@H](Cc2c[nH]c3ccccc23)NC(=O)[C@H](Cc2ccc(O)cc2)NC1=O` [Example 1123] ({CH2CO}-FYG[NMeY]NLYWC-NH2; thioether N-9) is 126 nM; for `CC(C)C[C@@H]1NC(=O)[C@H](Cc2ccccc2)NC(=O)CSC[C@@H](C(=O)NCC(N)=O)NC(=O)[C@H](C(C)C)NC(=O)[C@H](Cc2ccccc2)N(C)C(=O)[C@H](CC(C)C)NC(=O)[C@H](Cc2c[nH]c3ccccc23)NC(=O)CN(C)C(=O)CNC(=O)[C@H](C(C)C)NC(=O)[C@H](Cc2c[nH]c3ccccc23)NC1=O` [Example 1201] it is 39 nM; for `CC(C)C[C@@H]1NC(=O)[C@H](Cc2ccccc2)NC(=O)CSC[C@@H](C(N)=O)NC(=O)[C@H](C(C)C)NC(=O)[C@H](Cc2ccccc2)N(C)C(=O)[C@H](CC(C)C)NC(=O)[C@H](Cc2c[nH]c3ccccc23)NC(=O)CN(C)C(=O)CNC(=O)[C@H](C(C)C)NC(=O)[C@H](Cc2c[nH]c3ccccc23)NC1=O` [Example 1202] ({CH2CO}-FLWVG[Sar]WL[NMeF]VC-NH2; thioether N-11) it is 67 nM. The result for `CC(C)C[C@@H]1NC(=O)[C@H](Cc2ccccc2)NC(=O)CSC[C@@H](C(N)=O)NC(=O)[C@H](C(C)C)NC(=O)[C@H](Cc2ccccc2)N(C)C(=O)[C@H](CC(C)C)NC(=O)[C@H](Cc2c[nH]c3ccccc23)NC(=O)CN(C)C(=O)CNC(=O)[C@H](C(C)C)NC(=O)[C@H](Cc2c[nH]c3ccccc23)NC1=O` [Example 1203] ({CH2CO}-FLWVG[Sar]WL[NMeF]VC-NH2; thioether N-11) reads 86 nM. The figure for `CC(C)C[C@@H]1NC(=O)[C@H](Cc2ccccc2)NC(=O)CSC[C@@H](C(N)=O)NC(=O)[C@H](C(C)C)NC(=O)[C@H](Cc2ccccc2)N(C)C(=O)[C@H](CC(C)C)NC(=O)[C@H](Cc2c[nH]c3ccccc23)NC(=O)CN(C)C(=O)CNC(=O)[C@H](C(C)C)NC(=O)[C@H](Cc2ccc(-c3ccccc3)cc2)NC1=O` [Example 1204] ({CH2CO}-FL[Bip]VG[Sar]WL[NMeF]VC-NH2; thioether N-11) is 228 nM; for `CC(C)C[C@@H]1NC(=O)[C@H](Cc2ccccc2)NC(=O)CSC[C@@H](C(=O)NCC(N)=O)NC(=O)[C@H](C(C)C)NC(=O)[C@H](Cc2c[nH]c3ccccc23)NC(=O)[C@H](CC(C)C)NC(=O)[C@H](Cc2c[nH]c3ccccc23)NC(=O)CN(C)C(=O)CNC(=O)[C@H](C(C)C)NC(=O)[C@H](Cc2c[nH]c3ccccc23)NC1=O` [Example 1205] ({CH2CO}-FLWVG[Sar]WLWVCG-NH2; thioether N-11) it is 346 nM.
